Measured values as given in paper PMC3156712 (2011).

Legend:
[1] = test system: tRNA^phe (RNA, tRNA) GCGGAUUUAGCUCAGUUGGGAGAGCGCCAGACUGAAGAUCUGGAGGUCCUGUGUUCGAUCCACAGAAUUCGCACCA; experiment: ITC, single site model; details: 20 mM Na+, citrate-phosphate buffer pH 7.0, 20°C, per nucleotide phosphate, per base
[2] = test system: tRNA^phe (RNA, tRNA) GCGGAUUUAGCUCAGUUGGGAGAGCGCCAGACUGAAGAUCUGGAGGUCCUGUGUUCGAUCCACAGAAUUCGCACCA; experiment: DSC and optical melting; details: Na+, citrate-phosphate buffer pH 7.0, third transition (61°C), first unaffected, compound concentration not stated, per base
[3] = test system: tRNA^phe (RNA, tRNA) GCGGAUUUAGCUCAGUUGGGAGAGCGCCAGACUGAAGAUCUGGAGGUCCUGUGUUCGAUCCACAGAAUUCGCACCA; experiment: absorption titration, Scatchard, McGhee-von Hippel; details: 20 mM Na+, citrate-phosphate buffer pH 7.0, 20°C, per nucleotide phosphate, per base
[4] = test system: tRNA^phe (RNA, tRNA) GCGGAUUUAGCUCAGUUGGGAGAGCGCCAGACUGAAGAUCUGGAGGUCCUGUGUUCGAUCCACAGAAUUCGCACCA; experiment: fluorescence titration, Scatchard, McGhee-von Hippel; details: 20 mM Na+, citrate-phosphate buffer pH 7.0, 20°C, per nucleotide phosphate, per base

SMILES: COc1cccc2c1C(=O)c1c(O)c3c(c(O)c1C2=O)C[C@@](O)(C(C)=O)C[C@@H]3O[C@H]1C[C@H](N)[C@H](O)[C@H](C)O1
- K [1]: 22.2 ± 0.1 × 10^4 M^-1
- dTm ([2]; second transition about 4°C): 12.5 °C
- K′ [3]: 21.20 ± 0.30 × 10^4 M^-1
- K′ [4]: 18.58 ± 0.32 × 10^4 M^-1

SMILES: COc1cccc2c1cc1c3c(cc4c(c32)OCO4)C(=O)N1[C@@H]1O[C@H](CO)[C@@H](O)[C@H](O)[C@H]1O
- K ([1]; 240 mM DMSO): 6.5 ± 0.3 × 10^4 M^-1
- dTm ([2]; second transition about 2°C): 7 °C
- K′ ([3]; 240 mM DMSO): 4.33 ± 0.20 × 10^4 M^-1
- K′ ([4]; 240 mM DMSO): 6.38 ± 0.20 × 10^4 M^-1
